Test results: PubChem BioAssay (NCI)
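A five-concentration, 48-hour dose response in 96-well plates underlies each endpoint, interpolated linearly between surrounding concentrations. At the GI50, growth is halved. TGI marks complete inhibition of growth.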

Experiments:
Test in all cases: inhibition of tumour cell growth, NCI panel, 48 h
[1] = test system: TK-10 renal
[2] = test system: OVCAR-5 ovarian
[3] = test system: UACC-257 melanoma
[4] = test system: NCI-H522 lung
[5] = test system: SW-620 colon
[6] = test system: UACC-62 melanoma
[7] = test system: MOLT-4 leukemia
[8] = test system: NCI-H226 lung
[9] = test system: KM12 colon
[10] = test system: U251 CNS
[11] = test system: COLO 205 colon
[12] = test system: MDA-MB-435
[13] = test system: OVCAR-4 ovarian
[14] = test system: SF-268 CNS
[15] = test system: ACHN renal
[16] = test system: SR leukemia
[17] = test system: CCRF-CEM leukemia
[18] = test system: LOX IMVI melanoma
[19] = test system: PC-3 prostate
[20] = test system: T-47D breast
[21] = test system: SK-MEL-28 melanoma
[22] = test system: SF-539 CNS
[23] = test system: NCI-H460 lung
[24] = test system: UO-31 renal
[25] = test system: SF-295 CNS
[26] = test system: M14 melanoma
[27] = test system: K-562 leukemia
[28] = test system: HOP-62 NSCLC
[29] = test system: HS 578T breast
[30] = test system: SK-MEL-5 melanoma
[31] = test system: NCI-H23 lung
[32] = test system: SK-MEL-2 melanoma
[33] = test system: MCF7 breast
[34] = test system: CAKI-1 renal
[35] = test system: HOP-92 NSCLC
[36] = test system: SN12C renal
[37] = test system: HT29 colon
[38] = test system: OVCAR-8 ovarian
[39] = test system: SNB-19 CNS
[40] = test system: HCT-15 colon
[41] = test system: A549 NSCLC
[42] = test system: EKVX NSCLC
[43] = test system: NCI/ADR-RES ovarian
[44] = test system: IGROV1 ovarian
[45] = test system: MALME-3M melanoma
[46] = test system: DU-145 prostate
[47] = test system: MDA-MB-231 breast
[48] = test system: OVCAR-3 ovarian
[49] = test system: HL-60(TB) leukemia
[50] = test system: SNB-75 CNS
[51] = test system: HCT-116 colon
[52] = test system: BT-549 breast
[53] = test system: 786-0 renal
[54] = test system: RXF 393 renal
[55] = test system: SK-OV-3 ovarian
[56] = test system: HCC-2998 colon
[57] = test system: A498 renal
[58] = test system: RPMI-8226 leukemia

Compound `Cc1cc(Nc2ccc(OCc3ccccc3)cc2)nc2cc(O)ccc12` has a GI50 [1] of 14.5 µM, a TGI [1] of 29.2 µM and a GI50 [2] of 4.66 µM. For the same compound, the TGI [2] was 18.4 µM, the GI50 [3] was 3.49 µM and the TGI [3] was 13.5 µM. It also gave a GI50 [4] of 3.01 µM, a TGI [4] of 12.1 µM and a GI50 [5] of 5.12 µM. It also gave a TGI [5] of 19.4 µM, a GI50 [6] of 2.96 µM and a TGI [6] of 10.7 µM. For the same compound, the GI50 [7] was 3.37 µM, the TGI [7] was 17.4 µM and the GI50 [8] was 3.49 µM. For the same compound, the TGI [8] was 17.6 µM, the GI50 [9] was 3.1 µM and the TGI [9] was 13.3 µM. It also gave a GI50 [10] of 4.54 µM, a TGI [10] of 17.5 µM and a GI50 [11] of 4.84 µM. For the same compound, the TGI [11] was 17 µM, the GI50 [12] was 5.49 µM and the TGI [12] was 17.9 µM. For the same compound, the GI50 [13] was 8.74 µM, the TGI [13] was 22.6 µM and the GI50 [14] was 11.9 µM. The TGI [14] was 26.4 µM, the GI50 [15] was 3.41 µM and the TGI [15] was 13.3 µM. The GI50 [16] was 3.26 µM, the TGI [16] was 13.8 µM and the GI50 [17] was 3.01 µM. It also gave a TGI [17] of 20.7 µM, a GI50 [18] of 2.47 µM and a TGI [18] of 6.47 µM. The GI50 [19] was 3.46 µM, the TGI [19] was 18 µM and the GI50 [20] was 5.93 µM. The TGI [20] was 23.2 µM, the GI50 [21] was 2.95 µM and the TGI [21] was 8.19 µM. The GI50 [22] was 2.08 µM, the TGI [22] was 4.93 µM and the GI50 [23] was 3.09 µM. It also gave a TGI [23] of 10.2 µM, a GI50 [24] of 2.04 µM and a TGI [24] of 6.58 µM. For the same compound, the GI50 [25] was 2.23 µM, the TGI [25] was 5.36 µM and the GI50 [26] was 2.39 µM. The TGI [26] was 6.15 µM, the GI50 [27] was 1.09 µM and the TGI [27] was 14.9 µM. It also gave a GI50 [28] of 11.7 µM, a TGI [28] of 26.5 µM and a GI50 [29] of 10.2 µM. It also gave a TGI [29] of 29.2 µM, a GI50 [30] of 1.68 µM and a TGI [30] of 3.2 µM. The GI50 [31] was 6.91 µM, the TGI [31] was 21.5 µM and the GI50 [32] was 11.9 µM. For the same compound, the TGI [32] was 30.1 µM, the GI50 [33] was 3.32 µM and the TGI [33] was 14.2 µM. For the same compound, the GI50 [34] was 4.88 µM, the TGI [34] was 18.3 µM and the GI50 [35] was 2.01 µM. The TGI [35] was 6.26 µM, the GI50 [36] was 5.75 µM and the TGI [36] was 20.3 µM. It also gave a GI50 [37] of 3.86 µM, a TGI [37] of 14.9 µM and a GI50 [38] of 12.4 µM. The TGI [38] was 29.5 µM, the GI50 [39] was 9.57 µM and the TGI [39] was 23.2 µM. For the same compound, the GI50 [40] was 2.16 µM, the TGI [40] was 5.48 µM and the GI50 [41] was 5.23 µM. For the same compound, the TGI [41] was 20.4 µM, the GI50 [42] was 12.3 µM and the TGI [42] was 27.2 µM. For the same compound, the GI50 [43] was 5.93 µM, the TGI [43] was 19.8 µM and the GI50 [44] was 10.6 µM. It also gave a TGI [44] of 26.3 µM, a GI50 [45] of 3.88 µM and a TGI [45] of 11.2 µM. The GI50 [46] was 11.9 µM, the TGI [46] was 25.4 µM and the GI50 [47] was 2.52 µM. The TGI [47] was 8.78 µM, the GI50 [48] was 8.79 µM and the TGI [48] was 22.5 µM. For the same compound, the GI50 [49] was 3.38 µM, the TGI [49] was 14.7 µM and the GI50 [50] was 2.4 µM. It also gave a TGI [50] of 11.2 µM, a GI50 [51] of 4 µM and a TGI [51] of 14.6 µM. It also gave a GI50 [52] of 5.46 µM, a TGI [52] of 21 µM and a GI50 [53] of 4.51 µM. For the same compound, the TGI [53] was 17.2 µM, the GI50 [54] was 2.95 µM and the TGI [54] was 12.1 µM. The GI50 [55] was 13.4 µM, the TGI [55] was 26.7 µM and the GI50 [56] was 2.41 µM. The TGI [56] was 5.18 µM, the GI50 [57] was 13 µM and the TGI [57] was 27 µM. The GI50 [58] was 2.5 µM and the TGI [58] was 8.33 µM.
